Measured values published in publication PMC11818082, “2-{N-[ω-(1-Benzylpiperidin-4-yl)alkyl]amino}-6-[(prop-2-yn-1-yl)amino]pyridine-3,5-dicarbonitriles Showing High Affinity for σ1/2 Receptors” (International Journal of Molecular Sciences, 2025).
“And” between values parts separate entries of the source, which are not always exact repeats. Identical values can stand only once. Like-named read-outs stand apart in the source and are kept apart here.

Key:
human σ1R = target: T1, human σ1R (Homo sapiens, UniProt Q99720); assay: hσ1R competitive radioligand binding assay; conditions: for Selectivity Index of Rat σ2R/Human σ1R: Ki rat σ2R/Ki hσ1R
T1 construct: expressed in transfected cells; host or cells: HEK293 (provided by Olivier Soriani, Université de Nice Sophia-Antipolis)
T1 sequence (Q99720 whole entry): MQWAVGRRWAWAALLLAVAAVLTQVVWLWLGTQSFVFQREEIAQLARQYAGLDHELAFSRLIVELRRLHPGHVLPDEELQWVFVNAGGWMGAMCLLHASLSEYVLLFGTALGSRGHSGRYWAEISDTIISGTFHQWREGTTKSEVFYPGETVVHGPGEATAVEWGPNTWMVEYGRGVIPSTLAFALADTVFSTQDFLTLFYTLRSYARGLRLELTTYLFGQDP
Experimental: The hσ1R competitive binding assay was performed as previously reported. In brief, radioligand competition experiments were performed using preparations from HEK293 cells stably transfected with human σ1R cells (provided by Olivier Soriani, Université de Nice Sophia-Antipolis, Nice, France). The binding of the σ1R specific radioligand (+)-[^3H]pentazocine (1.051 TBq/mmol; PerkinElmer LAS GmbH, Rodgay, Germany) was measured at equilibrium in the presence of the test compounds at different concentrations (10 mM stock solutions in DMSO; final concentrations 10^−5–10^−11 M, 0.1 % DMSO) in TRIS buffer at pH 7.4 (50 mM TRIS-HCl, 120 mM NaCl, 5 mM KCl, 2 mM CaCl2, 1 mM MgCl2). Total binding was measured without the addition of a competitor, and non-specific binding was measured with 10 µM haloperidol as the competitor. The vials were incubated at room temperature (rt) (~21 °C) at 300 rpm. The incubation was terminated after 60 min by vacuum filtration using Whatman® GF/B glass-fiber filtermats (#FPD-100, Brandel Inc., Gaithersburg, MD, USA), soaked with freshly prepared 0.3% polyethyleneimine, using a 48-well harvester (Brandel Inc., Gaithersburg, MD, USA). Filters were washed four times with cold buffer (50 mM TRIS-HCl, pH 7.4 at 4 °C) and placed in scintillation vials. In total, 3 mL of a liquid scintillation cocktail (Ultima Gold TM; PerkinElmer, Waltham, MA, USA) was filled in each vial, and the vials were shaken at rt at 375 rpm for 120 min. Filter-bound radioactivity was measured in a Hidex 600 SL liquid scintillation counter (Hidex, Turku, Finnland). By performing nonlinear regression analysis of the binding curves (GraphPad Prism 3.0, GraphPad Software, Inc., La Jolla, CA, USA), the IC50 values were obtained, and the equilibrium inhibition constants Ki were calculated according to the Cheng–Prusoff equation [36], using the in-house determined equilibrium dissociation constant KD of 33 nM (+)-[^3H]pentazocine. Each test compound was measured in 2–3 independent experiments, each performed in triplicate.

rat σ2R = target: T2, rat σ2R (Rattus norvegicus, UniProt Q5U3Y7); assay: σ2R competitive radioligand binding assay (rat liver membranes)
T2 construct: The thawed membrane preparation of rat liver (about 100 µg of protein) was incubated; from tissue; host or cells: rat liver membranes
T2 sequence (Q5U3Y7 1-176): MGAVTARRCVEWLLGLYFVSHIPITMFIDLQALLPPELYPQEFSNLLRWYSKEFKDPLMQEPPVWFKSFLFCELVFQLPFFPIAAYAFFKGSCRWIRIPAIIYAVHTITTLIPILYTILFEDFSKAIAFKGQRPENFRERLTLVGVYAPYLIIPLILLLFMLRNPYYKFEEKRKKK
Experimental: Two rat livers were cut into small pieces and homogenized using a potter [Elvehjem Potter (B. Braun Biotech International, Melsungen, Germany); 500–800 rpm, 10 up-and-down strokes] in 6 volumes of cold 0.32 M sucrose. The suspension was centrifuged at 1200× g for 10 min at 4 °C. The supernatant was separated and centrifuged at 31,000× g for 20 min at 4 °C. The pellet was resuspended in 5–6 volumes of buffer (50 mM TRIS, pH 8.0) and incubated at rt for 30 min. After the incubation, the suspension was centrifuged again at 31,000× g for 20 min at 4 °C. The final pellet was resuspended in 5–6 volumes of buffer and stored at −80 °C in 1.5 mL portions containing about 2 mg of protein/mL.
The stock solution of the respective test compound (10 mM in DMSO) was diluted with the assay buffer to obtain the required test solutions for the assay. All binding experiments were carried out in duplicates in 96-well multiplates. The concentrations given are the final concentrations in the assay. The assays were performed with the radioligand [^3H]-DTG (specific activity 50 Ci/mmol; ARC, St. Louis, MO, USA). The thawed membrane preparation of rat liver (about 100 µg of protein) was incubated with various concentrations of the test compound, 3 nM [^3H]-DTG, and a buffer containing (+)-pentazocine (500 nM (+)-pentazocine in 50 mM TRIS, pH 8.0) at rt. The non-specific binding was determined with 10 μM non-labeled DTG. The Kd value of [^3H]-DTG is 17.9 nM [43].
Generally, the assays were performed by adding 50 µL of the respective assay buffer and 50 µL of the test compound solution in various concentrations (10^−5, 10^−6, 10^−7, 10^−8, 10^−9, and 10^−10 mol/L), 50 µL of the corresponding radioligand solution, and 50 µL of the respective receptor preparation into each well of the multiplate (total volume 200 µL). The receptor preparation was added last. During the incubation, the multiplates were shaken at a speed of 500−600 rpm at rt. The assays were terminated after 120 min by rapid filtration using the harvester (MicroBeta FilterMate 96; PerkinElmer LAS, Rodgau, Germany) equipped with filtermats presoaked in 0.5% aqueous polyethylenimine solution for 2 h at rt before use. During the filtration, each well was washed five times with 300 µL of water. Subsequently, the filtermats were dried at 95 °C. The solid scintillator (Meltilex; PerkinElmer LAS, Rodgau, Germany) was melted on the dried filtermats at a temperature of 95 °C for 5 min. After solidifying the scintillator at rt, the trapped radioactivity in the filtermats was measured with the scintillation analyzer (MicroBeta Trilux; PerkinElmer LAS, Rodgau, Germany). Each position on the filtermat corresponds to one well of the multiplate and was measured for 5 min with the [^3H]-counting protocol. The overall counting efficiency was 20%. The IC50 values were calculated with the program GraphPad Prism® 3.0 (GraphPad Software, San Diego, CA, USA) by nonlinear regression analysis. Subsequently, the IC50 values were transformed into Ki values using the equation of Cheng and Prusoff. The Ki values are given as the mean value ± SEM from three independent experiments.

EeAChE = conditions: cited from earlier work
eqBuChE = conditions: cited from earlier work; for IC50: read-out: IC50 BuChE
human MAO A = conditions: cited from earlier work
human MAO B = system: human MAO B; design: method as in earlier work; conditions: cited from earlier work
gpσ1R = gpσ1R (Cavia porcellus, UniProt Q60492); assay: gpσ1R affinity; type: binding
Chain of gpσ1R (Q60492 whole entry): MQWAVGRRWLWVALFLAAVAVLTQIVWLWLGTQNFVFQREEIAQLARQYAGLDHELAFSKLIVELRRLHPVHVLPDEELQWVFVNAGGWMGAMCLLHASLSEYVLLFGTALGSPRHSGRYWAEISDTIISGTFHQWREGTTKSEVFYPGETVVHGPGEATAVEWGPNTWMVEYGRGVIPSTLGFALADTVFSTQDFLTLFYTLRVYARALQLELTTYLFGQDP

[1] = membrane preparations of HEK-293 cells stably transfected with hσ1R, radioligand (+)-[3H]pentazocine, two experiments: mean (individual values), three or more: mean ± SD, read-out: Ki Human σ1R
[2] = rat liver membrane preparations, radioligand [3H]ditolylguanidine, (+)-pentazocine to mask σ1R, mean ± SEM, read-out: Ki Rat σ2R

Structure (SMILES) | Ki (human σ1R) | Selectivity Index of Rat σ2R/Human σ1R (human σ1R) | Ki (rat σ2R) [nM] | IC50 (EeAChE) [nM] | IC50 BuChE (eqBuChE; eqBuChE) | IC50 MAO A (human MAO A) | IC50 MAO B (human MAO B) | IC50 (eqBuChE; eqBuChE) [nM] | Ki (human σ1R; [1]) | Ki (rat σ2R; [2]) [nM] | fold higher affinity for hσ1R than the standards NE-100 and PB2 (human σ1R; compared with the standards) [fold] | Ki (gpσ1R) [nM] | IC50 (eqBuChE; as given in the text) [nM] | IC50 (human MAO A) [nM] | fold more affine for rat σ2R than for hσ1R (rat σ2R; Ki hσ1R vs Ki rat σ2R) [fold]
C#CCNc1nc(NC2CCN(Cc3ccccc3)CC2)c(C#N)cc1C#N [Compound 1] | 29.2 nM | 5.9 | 173 | 530 ± 70 | n.i. | n.i. | n.i. | – | – | – | – | – | – | – | –
C#CCNc1nc(NCCC2CCN(Cc3ccccc3)CC2)c(C#N)cc1C#N [Compound 2] | 7.57 ± 0.59 nM | 5.6 | 42 ± 8 | 16 ± 2 | n.i. | n.i. | n.i. | – | – | – | – | – | – | – | –
C#CCNc1nc(NCCCC2CCN(Cc3ccccc3)CC2)c(C#N)cc1C#N [Compound 3] | ~3 nM and 2.97 nM | 13 | 37 ± 5 | 4.7 ± 0.5 | – | n.i. | n.i. | 2030 ± 370 | – | – | – | – | – | – | –
C#CCNc1nc(NCCCCC2CCN(Cc3ccccc3)CC2)c(C#N)cc1C#N [Compound 4] | – | 41 | – | 1.3 ± 0.3 | – | n.i. | n.i. | 530 ± 60 | 3.97 ± 0.66 nM | 163 ± 50 | – | – | – | – | –
C#CCN(C)c1nc(NCCC2CCN(Cc3ccccc3)CC2)c(C#N)cc1C#N [Compound 5, 2-{[2-(1-benzylpiperidin-4-yl)ethyl]amino}-6-[methyl(prop-2-yn-1-yl)amino]pyridine-3,5-dicarbonitrile] | 1.45 ± 0.43 nM | 270 | 389 | 13 | – | n.i. | n.i. | – | – | – | ~1.3 | 2.9 | 3100 | – | –
C#CCN(C)c1nc(NCCCC2CCN(Cc3ccccc3)CC2)c(C#N)cc1C#N [Compound 6] | ~3 nM and 3.05 nM | 42 | 129 ± 26 | 6.2 ± 1.4 | – | – | n.i. | 1120 ± 160 | – | – | – | – | – | 6110 ± 1400 | –
C#CCN(C)c1nc(NCCCCC2CCN(Cc3ccccc3)CC2)c(C#N)cc1C#N [Compound 7] | – | – | – | 1.1 ± 0.3 | – | – | n.i. | 600 ± 80 | ~3 nM and 3.09 nM | 288 | – | – | – | – | –
C#CCNc1nc(NC2CCN(Cc3ccccc3)CC2)c(C#N)c(-c2ccccc2)c1C#N [Compound 8] | 27.3 nM | 5.2 | 141 | 4000 ± 100 | n.i. | – | n.i. | – | – | – | – | – | – | 25 ± 1 | –
C#CCNc1nc(NCCCC2CCN(Cc3ccccc3)CC2)c(C#N)c(-c2ccccc2)c1C#N [Compound 9] | 7.45 ± 4.32 nM | 14 | 104 ± 22 | 19 ± 5 | n.i. | n.i. | n.i. | – | – | – | – | – | – | – | –
C#CCNc1nc(NCCCCC2CCN(Cc3ccccc3)CC2)c(C#N)c(-c2ccccc2)c1C#N [Compound 10] | – | 2.5 | – | 1.7 ± 0.3 | – | n.i. | n.i. | 840 ± 100 | 15.4 nM | 39 | – | – | – | – | –
C#CCN(C)c1nc(NCC2CCN(Cc3ccccc3)CC2)c(C#N)c(-c2ccccc2)c1C#N [Compound 11, 2-{[(1-benzylpiperidin-4-yl)methyl]amino}-6-[methyl(prop-2-yn-1-yl)amino]-4-phenylpyridine-3,5-dicarbonitrile] | 119 nM | 0.46 | 55 | 270 ± 52 | – | n.i. | n.i. | 5000 ± 700 | – | – | – | – | – | – | 2
C#CCN(C)c1nc(NCCCC2CCN(Cc3ccccc3)CC2)c(C#N)c(-c2ccccc2)c1C#N [Compound 12] | 10.9 ± 1.9 nM | 36 | 393 | 14 ± 1 | – | n.i. | n.i. | 230 ± 30 | – | – | – | – | – | – | –
